Results published in ChEMBL document CHEMBL3885861, “Open TG-GATES”.

Species on record: Rattus norvegicus
Test: Open TG-GATES - Regimen: Daily Repeat
Type: toxicity, organism-based, Sprague-Dawley
Set-up: regimen Daily Repeat, gender Male, age 6 weeks
Details: in vivo, po, 15 mg/kg, route gavage, dose level Low; for APTT / Bas / Eos / Fbg / Hb / Ht / Lym / MCH / MCHC / MCV / Mono / Neu / PT / Plat / RBC / Ret / WBC: tissue Blood; for KIDNEY_L / KIDNEY_R / KIDNEY_TOTAL: tissue Kidney; for LIVER: tissue Liver; for A/G / ALP / ALT / AST / BUN / CRE / Ca / Cl / DBIL / GLC / IP / K / LDH / Na / PL / RALB / TBIL / TC / TG / TP / gamma-GTP: tissue Plasma

## CN(C)CCC=C1c2ccccc2CCc2ccccc21 [AMITRIPTYLINE]
72 h, time 3 day
  TERMINAL_BW: 224.1 g
  APTT: 16 s
  Bas: 0%
  Eos: 1%
  Fbg: 268.6 mg/dL
  Hb: 13.1 g/dL
  Ht: 40%
  Lym: 76.8%
  MCH: 20.3 pg
  MCHC: 32.7%
  MCV: 62 fL
  Mono: 3%
  Neu: 18.2%
  PT: 16 s
  Plat: 118.8 x10_4/uL
  RBC: 645.4 x10_4/ul
  Ret: 7.3%
  WBC: 97.8 x10_2/uL
  KIDNEY_L: 0.9 g
  KIDNEY_R: 0.9 g
  KIDNEY_TOTAL: 1.8 g
  LIVER: 10.4 g
  A/G: 0.8
  ALP: 1844.8 IU/L
  ALT: 55.8 IU/L
  AST: 74.6 IU/L
  BUN: 14.2 mg/dL
  CRE: 0.2 mg/dL
  Ca: 11 mg/dL
  Cl: 105.6 meq/L
  DBIL: 0.022 mg/dL
  GLC: 185.2 mg/dL
  IP: 7.7 mg/dL
  K: 4 meq/L
  LDH: 74.6 IU/L
  Na: 143.6 meq/L
  PL: 150.2 mg/dL
  RALB: 2.7 g/dL
  TBIL: 0.06 mg/dL
  TC: 76.2 mg/dL
  TG: 106 mg/dL
  TP: 5.8 g/dL
  gamma-GTP: 0.8 IU/L
[…], time 7 day
  TERMINAL_BW: 265.9 g
  APTT: 15.5 s
  Bas: 0%
  Eos: 1.2%
  Fbg: 292 mg/dL
  Hb: 13.6 g/dL
  Ht: 41.4%
  Lym: 79.6%
  MCH: 20.6 pg
  MCHC: 32.7%
  MCV: 62.8 fL
  Mono: 3%
  Neu: 15.6%
  PT: 15.1 s
  Plat: 116.5 x10_4/uL
  RBC: 659 x10_4/ul
  Ret: 6.3%
  WBC: 93.6 x10_2/uL
  KIDNEY_L: 1.1 g
  KIDNEY_R: 1.1 g
  KIDNEY_TOTAL: 2.1 g
  LIVER: 12.7 g
  A/G: 0.8
  ALP: 1784.2 IU/L
  ALT: 44.8 IU/L
  AST: 70.6 IU/L
  BUN: 18.4 mg/dL
  CRE: 0.2 mg/dL
  Ca: 10.9 mg/dL
  Cl: 105.6 meq/L
  DBIL: 0.018 mg/dL
  GLC: 187.6 mg/dL
  IP: 7.7 mg/dL
  K: 4.1 meq/L
  LDH: 85.8 IU/L
  Na: 143.8 meq/L
  PL: 163.8 mg/dL
  RALB: 2.7 g/dL
  TBIL: 0.046 mg/dL
  TC: 78 mg/dL
  TG: 126 mg/dL
  TP: 5.9 g/dL
  gamma-GTP: 0.8 IU/L
[…], time 14 day
  TERMINAL_BW: 314.4 g
  APTT: 17.3 s
  Bas: 0.4%
  Eos: 1%
  Fbg: 289.6 mg/dL
  Hb: 14 g/dL
  Ht: 42.2%
  Lym: 76%
  MCH: 20 pg
  MCHC: 33.2%
  MCV: 60.3 fL
  Mono: 2.2%
  Neu: 20%
  PT: 16 s
  Plat: 118.1 x10_4/uL
  RBC: 698.6 x10_4/ul
  Ret: 4.4%
  WBC: 115.2 x10_2/uL
  KIDNEY_L: 1.2 g
  KIDNEY_R: 1.2 g
  KIDNEY_TOTAL: 2.4 g
  LIVER: 13.8 g
  A/G: 0.8
  ALP: 1397.6 IU/L
  ALT: 44 IU/L
  AST: 69 IU/L
  BUN: 16.8 mg/dL
  CRE: 0.2 mg/dL
  Ca: 10.9 mg/dL
  Cl: 105.8 meq/L
  DBIL: 0.018 mg/dL
  GLC: 196 mg/dL
  IP: 6.8 mg/dL
  K: 4 meq/L
  LDH: 65 IU/L
  Na: 142.8 meq/L
  PL: 154 mg/dL
  RALB: 2.7 g/dL
  TBIL: 0.05 mg/dL
  TC: 70 mg/dL
  TG: 156.2 mg/dL
  TP: 6.1 g/dL
  gamma-GTP: 0.4 IU/L
[…], time 28 day
  TERMINAL_BW: 400.5 g
  APTT: 21.5 s
  Bas: 0.2%
  Eos: 1.4%
  Fbg: 286.6 mg/dL
  Hb: 15.5 g/dL
  Ht: 45.4%
  Lym: 81.4%
  MCH: 19.3 pg
  MCHC: 34.1%
  MCV: 56.6 fL
  Mono: 2%
  Neu: 14.2%
  PT: 16.1 s
  Plat: 97.5 x10_4/uL
  RBC: 802.8 x10_4/ul
  Ret: 2.5%
  WBC: 104.9 x10_2/uL
  KIDNEY_L: 1.4 g
  KIDNEY_R: 1.4 g
  KIDNEY_TOTAL: 2.8 g
  LIVER: 16.1 g
  A/G: 0.8
  ALP: 1354.6 IU/L
  ALT: 36 IU/L
  AST: 61.2 IU/L
  BUN: 17.6 mg/dL
  CRE: 0.2 mg/dL
  Ca: 10.6 mg/dL
  Cl: 103.8 meq/L
  DBIL: 0.018 mg/dL
  GLC: 180.6 mg/dL
  IP: 6.2 mg/dL
  K: 3.8 meq/L
  LDH: 55.4 IU/L
  Na: 142.8 meq/L
  PL: 156.2 mg/dL
  RALB: 2.8 g/dL
  TBIL: 0.056 mg/dL
  TC: 77 mg/dL
  TG: 130.4 mg/dL
  TP: 6.3 g/dL
  gamma-GTP: 0 IU/L
